The values that follow come from patent US4418068A, “Antiestrogenic and antiandrugenic benzothiophenes” (Eli Lilly and Company, priority 1981, dated 1983).

Assay [1] deals with estrogenic response. Nature of the assay: Estrogenic Response Test, mature ovariectomized mice (uterine weight). The assay is classed as in vivo, adult ovariectomized mice. As to conditions: Experiment E, s.c. On the procedure:
(§1) The first test reported below is used to determine the estrogenic potency of compounds. It is well known that many compounds having antiestrogenic activity also, typically, have estrogenic activity. As has been explained, estrogenic activity is a liability in an antiestrogen, and thus it is important to identify antiestrogens having a minimum amount of estrogenic activity. This test was conducted with immature 40-45 g. female rats, immature 11-13 g. mice, and adult ovariectomized mice. The rats were tested in groups of six, and mice in groups of ten. All of the laboratory animals were from standardized strains and were equilibrated to the laboratory before the test started. Each test was begun by administering the test compound daily for three days, as a subcutaneous injection or by oral gavage, as indicated below in the reports of individual experiments. Untreated control animals were included in each experiment, along with animals to which estradiol was administered subcutaneously. The estradiol-treated animals provided positive controls, showing the physiological effect of a potent estrogen on the individual group of animals used in the experiment. […] The test animals were treated for three days and sacrificed on the fourth day, and the uteri were removed, freed of extraneous tissue, and blotted with paper towels. The uteri were weighed to the nearest 0.1 mg. The tables below report the results of representative experiments. The doses of estradiol and of the compound of this invention are given as the total of the three daily doses. The uterine weights are given, in mg., as the means of all of the organ weights of the animals in a group. Compounds are referred to by their example numbers above.

Assay [2] concerns estrogenic response. Nature of the assay: Regression Test: reversal of established estrogenic response (uterine weight). The assay is classed as in vivo, immature rats. The conditions noted are these: estradiol alone 0.1 mcg./day s.c. On the procedure:
The following test was carried out to determine if the compounds of this invention could reverse an estrogenic response, when administration of the compound was started after the estrogenic response had become established.
The test animals were immature rats, and all administrations were by subcutaneous injection.
The mean uterine weights of these groups of animals, respectively, were 97.9, 97.3, 119.9 and 112.3 mg.
The animals were sacrificed on the fifth day and their mean uterine weight was 56.4 mg.
The animals were sacrificed on the seventh day and their mean uterine weight was 57.0 mg.

Assay [3] relates to estrogenic response. Description: Estrogenic Response Test, immature rats (uterine weight). The assay is classed as in vivo, immature 40-45 g. female rats. As to conditions: s.c. As to the method: as §1
Assay [4] has as its system estrogenic response of estradiol. Description: Antiestrogenic Test, mature ovariectomized mice (uterine weight). The conditions noted are these: Experiment A; estradiol alone 0.3 mcg., s.c. The assay is classed as in vivo, adult ovariectomized mice. As to the method:
(§2) This test was conducted with immature 40-45 g. female rats, immature 11-13 g. mice, and adult ovariectomized mice. The rats were tested in groups of six, and mice in groups of ten. All of the laboratory animals were from standardized strains and were equilibrated to the laboratory before the test started. Each test was begun by administering the test compound daily for three days, as a subcutaneous injection or by oral gavage, as indicated below in the reports of individual experiments.
(§3) The test animals were treated for three days and sacrificed on the fourth day, and the uteri were removed, freed of extraneous tissue, and blotted with paper towels. The uteri were weighed to the nearest 0.1 mg.
(§4) The uterine weights are given, in mg., as the means of all of the organ weights of the animals in a group. Compounds are referred to by their example numbers above.
(§5) The same standardized types of laboratory animals which were used in the experiments described above were also used in these experiments. […] Untreated control animals were used in each experiment. […] The dosage and sacrifice schedule, and the method of determining uterine weights and reporting data, were the same as the methods described above under Test 1.

Assay [5] deals with estrogenic response. Nature of the assay: Estrogenic Response Test, immature mice (uterine weight). The assay is classed as in vivo, immature 11-13 g. mice. The conditions noted are these: Experiment D, s.c. As to the method: as §1
Assay [6] has as its system estrogenic response of estradiol. Description: Antiestrogenic Test, immature mice (uterine weight). The assay is classed as in vivo. As to conditions: Experiment B; estradiol alone 0.3 mcg., s.c. As to the method: as §2, §3, §4, §5
Assay [7] shares this test system. Description: Antiestrogenic Test, immature rats (uterine weight). The assay is classed as in vivo. As to conditions: Experiment I, 3 mg., s.c. + estradiol 0.3 mcg. As to the method:
as §2, §3, §4, §5

Assay [8] relates to estrogenic response. As to conditions: Black and Goode 1980; cited from earlier work.
Assay [9] relates to androgen-stimulated prostate growth. Description: Anti-Androgen Test, adult castrated male rats (ventral prostate weight). The conditions noted are these: Experiment A; androgen only, testosterone propionate 0.1 mg./day s.c., 7 days, castrated. The assay is classed as in vivo. On the procedure: The antiandrogenic property of the compounds was evaluated in the following tests, in which the compound of Example 3 was used again.
(§6) The animals used in this test were adult male rats having a body weight which averaged about 330 g. when the experiment ended. All of the animals to be used in the experiment were castrated by the scrotal route, and were held untreated for 3 days. On the fourth day, subcutaneous administration of 0.1 mg./day of an exogenous androgen, testosterone propionate, was begun, and was continued for seven consecutive days. An untreated control group of animals received injections of 0.1 ml./day of corn oil as a blank treatment. The compound of this invention was administered orally or subcutaneously to the treated animals in 0.1 ml. of corn oil, at the same time that the androgen was administered. The animals were sacrificed 24 hours after the last injection of testosterone propionate, the ventral prostate glands were removed and weighed, and the mean of the weights of each treatment group was reported. The table below reports the mean weights resulting from administration of various doses of the compound along with androgen.
Each treatment group of animals in this experiment consisted of seven to nine animals, except for the untreated control group, which contained twelve animals.

The test system is the same in assay [10]. Nature of the assay: Anti-Androgen Test, immature male rats (ventral prostate weight). The assay is classed as in vivo. The conditions noted are these: androgen only 20 mcg./day s.c. On the procedure:
as §6, with “reported.” for “reported. The table below reports the mean weights resulting from administration of various doses of the compound along with androgen.”
This experiment was carried out in the same manner as Experiment A above, except that the test animals were immature male rats, weighing about 120 g. each at sacrifice. Each treatment group consisted of six or seven animals. All treatments in this experiment were administered by subcutaneous injection. The amount of the androgen administered was only 20 mcg./day because of the small size of the animals.
This experiment was also conducted in immature rats having average body weight of about 115 g. when the experiment ended. In other respects, the experiment was as described under Experiment B above. The treatment groups consisted of ten animals each, except for the androgen only group, of 16 animals, and the 5 mg./kg. group, of nine animals.

Assay [11] concerns DMBA-induced mammary tumors. Nature of the assay: Tests Against DMBA-Induced mammary tumors. The assay is classed as in vivo, adult female virgin rats. The conditions noted are these: Experiment D. The source says: Mammary tumors were induced in adult female virgin rats by a single 20-mg. oral dose of 7,12-dimethylbenzanthracene. Within about six weeks, visible and palpable tumors were present in the mammary tissue of the rats, and the rats were allocated into treatment and control groups in such a way that each group contained animals having approximately the same size and number of tumors. The size of the tumors was estimated by measuring their cross-sectional area. […]
[…] The treated animals received 1 mg./kg. per day of 6-methoxy-2-(4-hydroxyphenyl)-3-[4-(2-piperidinoethoxy)benzoyl]benzo[b]thiophene, hydrochloride, as a subcutaneous injection in corn oil. The animals were not ovariectomized at the end of the experiment.

[12] abbreviates: 1 mg./kg. per day s.c., fifth week.

Structures are written as SMILES. A value given as a limit tells only on which side of the number the result lay.

Turning to `C[C@]12CC[C@@H]3c4ccc(O)cc4CC[C@H]3[C@@H]1CC[C@@H]2O` [Estradiol, reference compound], the “Uterine weight” value in assay [1] (total dose 0.03 mcg.) came to 25.8 mg; in [1] (total dose 0.1 mcg.), 44.2 mg; in [1] (total dose 0.3 mcg.), 65.9 mg; in assay [3] (Experiment A, total dose 0.3 mcg.) it was 74.6 mg; in [3] (Experiment B, total dose 0.3 mcg.) it was 56.8 mg; in assay [3] (Experiment C, total dose 0.3 mcg.), 63.1 mg. For the same compound, the Uterine weight worked out at 65.9 mg in assay [4]; 33.3 mg in [5] (total dose 0.03 mcg.); 48.2 mg in [5] (total dose 0.09 mcg.); 50.3 mg in [5] (total dose 0.3 mcg.); 50.3 mg in assay [6]. For the same compound, the mean uterine weight in assay [2] (eight days) came out at 112.3 mg; in assay [2] (four days), 97.3 mg; in assay [2] (six days), 119.9 mg; in assay [2] (three days), 97.9 mg.

Take `CCOC(=O)Oc1ccc(-c2sc3cc(OC(=O)OCC)ccc3c2C(=O)c2ccc(OCCN3CCCCC3)cc2)cc1` [Example 12, 6-ethoxycarbonyloxy-2-(4-ethoxycarbonyloxyphenyl)-3-[4-(2-piperidinoethoxy)benzoyl]benzo[b]thiophene]: the Uterine weight is listed as 31.8 mg in assay [7] and 35.8 mg in assay [3] (Experiment C, total dose 3 mg.).

As to `COc1ccc(-c2sc3cc(OC)ccc3c2C(=O)c2ccc(OCCN3CCCCC3)cc2)cc1.Cl` [Example 14, 6-methoxy-2-(4-methoxyphenyl)-3-[4-(2-piperidinoethoxy)benzoyl]benzo[b]thiophene, hydrochloride], the Uterine weight in assay [7] was 37.5 mg; in assay [3] (Experiment C, total dose 3 mg.) it was 35.1 mg.

With `CC(=O)Oc1ccc(-c2sc3cc(OC(C)=O)ccc3c2C(=O)c2ccc(OCCN3CCCCC3)cc2)cc1` [Example 10, 6-acetoxy-2-(4-acetoxyphenyl)-3-[4-(2-piperidinoethoxy)benzoyl]benzo[b]thiophene], the Uterine weight in [7] turned out to be 32.2 mg; in [3] (Experiment C, total dose 3 mg.), 30.8 mg.

Take `O=C(c1ccc(OCCN2CCCC2)cc1)c1c(-c2ccc(O)cc2)sc2cc(O)ccc12` [6-hydroxy-2-(4-hydroxyphenyl)-3-[4-(2-pyrrolidinoethoxy)benzoyl]benzo[b]thiophene]: in [8], the “antiestrogenic effectiveness vs tamoxifen or trioxifene” value is “considerably more effective as an antiestrogen” and the “estrogenicity vs tamoxifen or trioxifene” value was “considerably less estrogenic”.

Consider `CCCCCCCCCCCC(=O)Oc1ccc(-c2sc3cc(OC(=O)CCCCCCCCCCC)ccc3c2C(=O)c2ccc(OCCN3CCCCC3)cc2)cc1` [Example 11, 6-dodecanoyloxy-2-(4-dodecanoyloxyphenyl)3-[4-(2-piperidinoethoxy)benzoyl]benzo[b]thiophene], for which the Uterine weight in assay [7] is 40.0 mg; in [3] (Experiment C, total dose 3 mg.), 37.1 mg.

As for `CCC(=O)O[C@H]1CC[C@H]2[C@@H]3CCC4=CC(=O)CC[C@]4(C)[C@H]3CC[C@]12C` [Androgen, testosterone propionate, reference compound], the entries for the “Mean Prostate Weight” value in assay [9], in assay [10] (Experiment B) and in assay [10] (Experiment C) were 309 mg, 48.7 mg and 43.5 mg, respectively.

`Cl.O=C(Oc1ccc(-c2sc3cc(OC(=O)c4ccccc4)ccc3c2C(=O)c2ccc(OCCN3CCCCC3)cc2)cc1)c1ccccc1` [Example 13, 6-benzoyloxy-2-(4-benzoyloxyphenyl)-3-[4-(2-piperidinoethoxy)benzoyl]benzo[b]thiophene, hydrochloride]: the Uterine weight in assay [7] came to 41.1 mg; in assay [3] (Experiment C, total dose 3 mg.), 39.6 mg.

Turning to `COc1ccc2c(C(=O)c3ccc(OCCN4CCCCC4)cc3)c(-c3ccc(O)cc3)sc2c1.Cl` [Example 19, 6-Methoxy-2-(4-hydroxyphenyl)-3-[4-(2-piperidinoethoxy)benzoyl]benzo[b]thiophene, hydrochloride], in assay [11] (1 mg./kg. per day s.c. in corn oil, fourth week), the “animals with completely regressed tumors” value is recorded as “three of the eight treated animals had completely regressed”. Also, in assay [11] (setting [12]), the completely regressed animals entry is listed as “three completely regressed animals” and the “tumor area, upper end of range (single tumor)” value is no more than 1974 sq. mm. The “average tumor area, other seven treated animals” value in assay [11] (1 mg./kg. per day s.c., fifth week, animal with burst tumors excluded) amounted to 398 square millimeters. In [11] (1 mg./kg. per day s.c., four weeks), the “tumor area of one animal (largest)” value was determined as 3764 sq. mm. The “average tumor area of the other seven animals” value in assay [11] (1 mg./kg. per day s.c., four weeks, animal with 3764 sq. mm. ignored) stood at 254 sq. mm. In addition, the “average total tumor area of the treated group” value in assay [11] (1 mg./kg. per day s.c., four weeks, eight animals) came to 692 square millimeters.
